Data as given in patent publication US12616806B2, “Nasal administration” (OptiNose Inc., priority 2013, dated 2026).

Legend:
[1] = tested on: episodic migraine; settings: continuous carbon dioxide infusion; cited from earlier work
[2] = cited from earlier work
[3] = tested on: chronic rhinosinusitis (CRS) with nasal polyps; assay: Example #12: placebo controlled study in chronic rhinosinusitis with nasal polyps; type: in vivo, human; settings: after 12 weeks

## O=C=O [carbon dioxide]
[1]
  two-hour pain free response: 25.0%
[2]; 5 L/min carbon dioxide in concentrations of 15% and 45%
  dips in mucosal pH: 0.1-0.2 pH units
[2]; 5 L/min, 3 s duration, 20% carbon dioxide, basal ~7.4
  decrease of extracellular nasal mucosal pH: 0.05-0.1 pH units

## C[C@@H]1C[C@H]2[C@@H]3C[C@H](F)C4=CC(=O)C=C[C@]4(C)[C@@]3(F)[C@@H](O)C[C@]2(C)[C@@]1(O)C(=O)SCF [fluticasone]
[3]
  change in summed polyp score: −0.98
